We go through 1 compound from patent US20050203119A1, “Dihydropyridine compounds for treating or preventing metabolic disorders” (priority 2003, published 2005).

One series has as its system Lepr db mice. As to the kind of experiment: Oral glucose tolerance test in Lepr db mice (Example 120). The class given is in vivo, mouse. The protocol:
Compound 39 (25, 50 and 100 mg/kg) and vehicle (0.5% Methylcellulose) were administered orally at one hour before glucose loading (2 g/kg, PO) to Lepr db mice fasted for about 4 hours. Blood samples were collected sequentially from the retro-orbital sinus at pre-treatment one day before and about 1 and about 2 hours after glucose loading. Serum glucose values were obtained at about 1 and about 2 hours after glucose loading, percentage reductions were expressed as percentage of corresponding vehicle control values and unpaired Student's t test was then applied for comparison between test substance and vehicle group. Differences are considered significant at P<0.05 level.

Series [1] relates to male db/db mice (C57BLKS/J-m+/+Lepr db/Iar). As to the kind of experiment: Seven day baseline glucose (7DBG) study in fed db/db mice (Example 123, FIGS. 6 and 8). The class given is in vivo, mouse. The note with it: oral once daily 7 days. Here is the method: To determine the effect of a test compound on blood glucose levels in fed diabetic mice, seven day baseline glucose (7DBG) studies were conducted. Six to eight week old, male db/db mice (C57BLKS/J-m+/+Lepr^db/Iar), homozygous for a mutation in the gene encoding the leptin receptor, were purchased from the Institute for Animal Reproduction (Kasumigaura, Japan). Six to eight week old male KK-A^y mice (KK-A^y/Ta Jcl), a polygenic diabetes model, were purchased from Cler Japan (Tokyo, Japan). Animals were housed four to a cage in micro-isolators on a 12 hr/12 hr light/dark cycle, acclimated for at least one week prior to use and fed normal laboratory chow ad libitum. Studies were conducted with animals between nine and fourteen weeks of age. […]
To perform a 7DBG study, the starting glucose levels of db/db or KK-Ay mice in the fed state were determined on day 0, 24 hrs prior to the first drug dose on day 1. Animals were retro-orbitally bled and serum glucose levels measured by the mutarotase-glucose oxidase enzymatic method using a Glucose CII-Test Wako kit (Wako Pure Chemicals Industries, Ltd., Osaka, Japan). […] Serum glucose levels were determined 3 hrs after dosing the first compound on days 3 and 7.
The serum glucose levels on days 3 or 7 as a percent of the serum glucose levels on day 0 for individual animals in each group (6-7 mice/group), calculated using Formula 3: [formula] […]

A further series has as its system Male SD rats. To be noted: rat, in vivo. Here is the method: Male SD rats weighing 350-420 g were anesthetized with 2-3% isoflurane. The femoral artery and vein were catheterized and connected to a mean arterial blood pressure (MAP) and heart rate (HR) monitor and a continuous intravenous infusion pump. Under anesthesia, MAP and HR were recorded 10-20 minutes prior to and during the continuous intravenous infusion of test compounds for 60-70 minutes. The infusion rate, 0.14-0.16 ml/kg/minute, was determined on the basis of vehicle tolerance. The infusion doses, 1.0-1.25 mg/kg/minute, were selected, depending upon the solubility of the compound and effects on MAP and HR of the positive control compounds at the lethal dose. The maximal effective dose or lethal dose of test compounds were determined accordingly.

The test system of series [2] is male db/db mice (BKS.Cg-m+/+Lepr db/J). Kind of series: Intraperitoneal glucose tolerance test (IPGTT) in db/db mice (Example 122, FIGS. 3 and 5). Format: in vivo, mouse. The note with it: IPGTT.
Protocol: Six to eight week old, male db/db mice (BKS.Cg-m+/+Lepr^db/J; stock number 000642), homozygous for a mutation in the gene encoding the leptin receptor, were purchased from The Jackson Laboratory (Bar Harbor, Me. USA). Animals were singly housed in conventional caging on a 12 hr/12 hr light/dark cycle, acclimated for at least five days prior to use and fed normal laboratory chow ad libitum between experiments. Studies were conducted with animals between seven and fourteen weeks of age. Animals were used for a maximum of five consecutive studies, with a minimum recovery period of five days between studies.
To perform an IPGTT or OGTT, db/db mice were fasted overnight beginning on day 0 at −17.5 to −18.5 hrs relative to the glucose dose on day 1 (all time points below are stated relative to the time of an intraperitoneal or oral glucose dose on day 1). At −4.5 hrs, animals were weighed, blood was collected by tail vein lancing and fasted blood glucose levels determined using a hand-held glucometer (MediSense Precision Xtra or LifeScan OneTouch Ultra). Animals were randomized into dosing groups of 6-7 animals, with each group having a similar average fasted blood glucose level. At −3 hr, animals were dosed with vehicle alone, a test compound or metformin by oral gavage at 5 ml/kg body weight. […] Blood glucose levels were determined as above at −45 min and +45 min, and also +90 min and/or +150 min (see FIG. 3 and the Table in this section). Alternatively, blood glucose levels were determined at −30 min, +30 min, +60 min and +120 min (see FIGS. 4 and 5).
Compound doses were adjusted to be the molar equivalents of 50 mg/kg of Compound 39. The percent change in blood glucose between −45 min and a time point, y, after glucose dosing (e.g., +45 min, +150 min, ect.) was calculated for each animal using formula 1: [formula]
The percent change in blood glucose between −45 min and a time point, y, after glucose dosing was calculated for each animal using formula 1.
Average percent change in glucose intolerance was calculated using Formula 2, as noted in the table below. […]

Bounds are passed on as bounds.

As for `CCOC(=O)C1=C(COCCN)NC2=C(C(=O)CC(C)(C)C2)C1c1cccnc1` (stereo not shown) [Compound 39, 2-(2-Amino-ethoxymethyl)-7,7-dimethyl-5-oxo-4-pyridin-3-yl-1,4,5,6,7,8-hexahydro-quinoline-3-carboxylic acid ethyl ester], the “Serum Glucose” value worked out at 375.9 ± 16.3 mg/dL with Lepr db mice (0 hr (pre-treatment one day before), 25 mg/kg group); 371.1 ± 15.2 mg/dL in the series on Lepr db mice (0 hr (pre-treatment one day before), 50 mg/kg group); 340.7 ± 14.2 mg/dL in the series on Lepr db mice (0 hr (pre-treatment one day before), 100 mg/kg group); 379.3 ± 18.5 mg/dL in the series on Lepr db mice (1 hr after glucose loading (2 g/kg PO), 25 mg/kg orally); 415.6 ± 11.0 mg/dL in the series with Lepr db mice (1 hr after glucose loading (2 g/kg PO), 50 mg/kg orally); 366.2 ± 17.3 mg/dL in the series with Lepr db mice (1 hr after glucose loading (2 g/kg PO), 100 mg/kg orally). Further, the “Serum Glucose” value turned out to be 331.1 ± 14.5 mg/dL with Lepr db mice (2 hr after glucose loading (2 g/kg PO), 25 mg/kg orally); 346 ± 16.8 mg/dL with Lepr db mice (2 hr after glucose loading (2 g/kg PO), 50 mg/kg orally); 301.3 ± 28.4 mg/dL in the series on Lepr db mice (2 hr after glucose loading (2 g/kg PO), 100 mg/kg orally). The “serum glucose % Reduction relative to vehicle” value in the series on Lepr db mice (1 hr after glucose loading, 25 mg/kg orally) is reported as “(19.3) %”; with Lepr db mice (1 hr after glucose loading, 50 mg/kg orally) it was “(11.6) %”; in the series with Lepr db mice (1 hr after glucose loading, 100 mg/kg orally), “(22.1) %”; in the series on Lepr db mice (2 hr after glucose loading, 25 mg/kg orally) it was “(11.8) %”; with Lepr db mice (2 hr after glucose loading, 50 mg/kg orally), “(7.8) %”; in the series with Lepr db mice (2 hr after glucose loading, 100 mg/kg orally), “(19.7) %”. The “glucose lowering activities of rosiglitazone and metformin in combination with Compound 39 (FIG. 8)” value in series [1] is “enhanced”. Moreover, the “Lethal Dose” value in the series on Male SD rats is more than 70 mg/kg. In series [2] (Compound 39 orally dosed alone), the “glucose intolerance relative to vehicle-treated animals (FIG. 5)” value is “decreased”. Moreover, the “effect of metformin on glucose intolerance in combination with Compound 39 (FIG. 5)” value in series [2] (Compound 39 orally in combination with metformin) was “enhanced”.
